Read-outs that look alike come from different tables or passages of the source.
What was measured:
[1] = Body weight of fasted mice given APAP (weight ratio / difference between days); type: in vivo
Text: Table 9 presents the effect of each combination on body weight loss, as determined by the ratio of the mice body weight between Day 0 and Day 2.
Table 12 presents the effect of each combination on body weight loss, as determined by the ratio of the mice body weight between Day 0 and Day 2 and by the difference in the mice body weight between Day 1 (immediately after administration of APAP with the different combinations and before food was returned) and Day 2.
Table 18 presents the effect of each combination on body weight, as determined by the difference in the mice body weight between Day 1 (immediately after administration of APAP with the different combinations and before food was returned) and Day 2.
This combination was tested for its effect on toxicity induced by APAP using the procedure described in Example 1 above with several modifications, as described below. Mice were allocated into four groups of six mice each, as detailed in Table 19 below. Food was taken on the afternoon (18:00) of Day 0. Mice were orally administered APAP 15 hours later (9:00 next morning, Day 1) by gavage administration. NAC was administered PO with APAP. MSM+IB were administered 1.5 h later. Following another 1.5 h, PC was administered. Food was returned 3.5 h after APAP administration (Day 1). Weight was determined three times: on Day 0 before food was taken, after over-night fasting (Day 1, just before APAP administration) and before sacrifice (Day 2, 24 hours after APAP administration).

[2] = system: ConA-activated splenocytes; assay: IFN-γ secretion by ConA-activated splenocytes from treated mice (ELISA); type: cell-based; settings: FIG. 5; groups A, B, C, D of Table 24; 5 μg ConA, 20 h; p=NS
Procedure: After mice were sacrificed, spleens from five mice from each group were taken and splenocytes were isolated by the following procedure: Isolation of splenocytes: Spleens were stored in RPMI-1640 medium supplemented with FCS. Spleens were crushed through a 70-μm nylon cell strainer (Falcon) and centrifuged (1,250 rpm for 7 min.). Red blood cells were lysed in 1 ml of cold 155 mM ammonium chloride lysis buffer. Splenocytes were washed and resuspended in 1 ml of RPMI supplemented with FCS. The viability of cells as assessed by trypan blue exclusion exceeded 90%. Next, splenocytes (1×10^6 per mouse, per well, in duplicates) were moved into a 24 well plate containing RPMI-1640 supplemented with 10% FCS, 1% penicillin/streptomycin (P/S), 1% glutamine, 1% sodium pyruvate and 1% non-essential amino acid. […] After incubation cells from all wells were moved to Eppendorff tubes and centrifuged for 5 minutes. Then supernatants were collected and freezed in −80° C. until assayed for IFN-γ by ELISA. Cytokine determination: Levels of IFN-γ were determined by “sandwich” ELISA using commercial kit according to the manufacturer's instructions (Quantikine, R&D Systems, Minneapolis, Minn., USA).

toxicity induced by APAP [3] = settings: for effect on liver enzymes serum levels: Example 2, Tables 3 and 4, 0.1-0.4 mg/mouse with APAP 4 mg; for beneficial effect on acetaminophen-induced liver toxicity: mice, administered together with, or following, large dosage of acetaminophen
Procedure: IB was tested for its effect on toxicity induced by APAP in comparison to NAC using the following procedure: Mice were allocated into four groups of six mice each, as described in Table 1 below. The mice received sub-lethal hepatotoxic doses of APAP, causing liver damage equivalent to consumption of approximately 10 gr APAP (20 caplets of 500 mg) per 70 kg man.
Food was taken on the afternoon (18:00) of Day 0. Mice were orally administered APAP, APAP+IB or APAP+NAC 15 h hours later (9:00 next morning, Day 1) by gavage administration. A total of 350 μl were administered, containing the different components in the desired concentrations in PBS. Food was returned 2 h after APAP administration (Day 1). For all groups, mice were weighted daily, and blood samples were taken 24 h hours after APAP administration (Day 2). Serum levels of the liver enzymes aspartate aminotransferase (AST) and alanine aminotransferase (ALT) were measured using a Reflovet® Plus clinical chemistry analyzer (Roche Diagnostics, GmbH, Mannheim, Germany). Serum samples were diluted before the measurements, as needed.
The following combinations were tested using the same procedure described in Example 1 above, and compared to 4 mg APAP+3 or 3.5 mg NAC: […]
This combination was tested for its effect on toxicity induced by APAP using the procedure described in Example 1 above. […]
Mice were treated according to the procedure describe in Example 1 above.

toxicity induced by APAP [4] = assay: Liver biopsy histology (H&E) 24 h after APAP administration; type: in vivo, mice
Procedure: In addition, liver biopsies were performed. For histopathology, livers from individual mice were fixed in 10% formaldehyde solution and kept at room temperature until use. The tissue blocks were then embedded in paraffin, […] sections were cut and stained with hematoxylin and eosin (H&E) for morphological examination. […] Improved liver architecture with no evidence for cellular damage and necrosis can be seen in all treated groups.

[5] = Table 12, per mouse APAP 4 mg, NAC 3.5 mg, PC 0.9 mg after 3 h
[6] = Table 15, APAP 4 mg/mouse alone or + NAC 3.5 mg, PC 0.9 mg after 3 h
[7] = Table 15, APAP 4.6 mg/mouse alone or + NAC 3.5 mg, PC 0.9 mg after 3 h
[8] = Table 21, APAP 7 mg/mouse alone or + NAC 3.5 mg/mouse
[9] = Table 2, serum 24 h after APAP, PO, APAP 4 mg/mouse alone or + NAC 3 mg/mouse
[10] = Table 3, 24 h, PO, APAP 4 mg/mouse alone or + NAC 3 mg/mouse
[11] = Table 4, 24 h, PO, APAP 4 mg/mouse alone or + NAC 3.5 mg/mouse
[12] = Table 6, 24 h, PO, APAP 4 mg/mouse alone or + NAC 3.5 mg/mouse
[13] = Table 8, 24 h, PO, APAP 4 mg/mouse alone or + NAC 3 mg/mouse
[14] = Table 11, 24 h, PO, per mouse APAP 4 mg, NAC 3.5 mg, PC 0.9 mg after 3 h
[15] = Table 14, 24 h, PO, APAP 4 mg/mouse alone or + NAC 3.5 mg, PC 0.9 mg after 3 h
[16] = Table 14, 24 h, PO, APAP 4.6 mg/mouse alone or + NAC 3.5 mg, PC 0.9 mg after 3 h
[17] = Table 17, 24 h, PO, per mouse APAP 4 mg, NAC 3.5 mg, MSM 1.5 mg
[18] = Table 20, 24 h, PO, APAP 7 mg/mouse alone or + NAC 3.5 mg/mouse
[19] = Table 23, 24 h, PO, per mouse APAP 4 mg, MSM 0.15 mg, IB 0.1 mg
[20] = Table 27, 24 h, PO, per mouse APAP 4.6 mg, NAC/Cys/Met 3.5 mg, PC 0.9 mg, MSM 0.2 mg, IB 0.1 mg
[21] = Table 30, APAP 4.6 mg with NAC/Cys/Met 3.5 mg, MSM 0.1 mg + IB 0.1 mg after 1.5 h, PC 0.9 mg after 3 h
[22] = Table 33, 24 h, PO, per mouse APAP 4.6 mg, NAC/Cys/Met 3.5 mg

CC(=O)Nc1ccc(O)cc1 [APAP, N-(4-hydroxyphenyl)acetamide]
decrease in body weight during the two days of the experiment ([1]; Example 4, Table 9, APAP 4 mg/mouse only): 6%
decrease in body weight during the two days of the experiment ([1]; Example 8, Table 28, APAP 4.6 mg only): more than 8%
decrease in body weight during the two days of the experiment ([1]; Example 8, Table 31, APAP 4.6 mg only): more than 8%
decrease in body weight during the two days of the experiment ([1]; Example 8, Table 34, APAP 4.6 mg only): more than 6%
Weight ratio Day 0-Day 2 ([1]; Table 9, APAP 4 mg/mouse alone or + NAC 3 mg/mouse, PO): 94.17%
Weight difference Day 1 − Day 2 [1, 5]: 1.17
Weight ratio Day 1-Day 2 [1, 5]: 105%
Weight difference Day 1 − Day 2 [1, 6]: 2.07
Weight ratio Day 1-Day 2 [1, 6]: 108%
Weight difference Day 1 − Day 2 [1, 7]: 1.02
Weight ratio Day 1-Day 2 [1, 7]: 104%
Weight difference Day 1 − Day 2 ([1]; Table 18, per mouse APAP 4 mg, NAC 3.5 mg, MSM 1.5 mg): 1.05
Weight difference Day 1 − Day 2 [1, 8]: −0.45
Weight ratio Day 1-Day 2 [1, 8]: 98%
Weight ratio Day 0-Day 2 ([1]; Table 28, per mouse APAP 4.6 mg, NAC/Cys/Met 3.5 mg, PC 0.9 mg, MSM 0.2 mg, IB 0.1 mg): 91.59%
Weight ratio Day 0-Day 2 ([1]; Table 31, APAP 4.6 mg with NAC/Cys/Met 3.5 mg, MSM 0.1 mg + IB 0.1 mg after 1.5 h, PC 0.9 mg after 3 h): 91.23%
Weight ratio Day 0-Day 2 ([1]; Table 34, per mouse APAP 4.6 mg, NAC/Cys/Met 3.5 mg): 93.26%
IFN-γ levels secreted by ConA-activated splenocytes [2]: 259 pg/mL
ALT (average ± std. dev.) (toxicity induced by APAP [3]; [9]): 14,360 ± 4,370.52 IU/L
AST (average ± std. dev.) (toxicity induced by APAP [3]; [9]): 18,920.00 ± 12,192.04 IU/L
ALT (average ± std. dev.) (toxicity induced by APAP [3]; [10]): 5,617.50 ± 1,832.77 IU/L
AST (average ± std. dev.) (toxicity induced by APAP [3]; [10]): 3,672.67 ± 1,965.99 IU/L
ALT (average ± std. dev.) (toxicity induced by APAP [3]; [11]): 8,880.00 ± 2,624.31 IU/L
AST (average ± std. dev.) (toxicity induced by APAP [3]; [11]): 5,848.67 ± 1,993.43 IU/L
ALT (average ± std. dev.) (toxicity induced by APAP [3]; [12]): 7,790.0 ± 2,175.9 IU/L
AST (average ± std. dev.) (toxicity induced by APAP [3]; [12]): 4,883.3 ± 1,549.4 IU/L
ALT (average ± std. dev.) (toxicity induced by APAP [3]; [13]): 6,421.67 ± 2,914.38 IU/L
AST (average ± std. dev.) (toxicity induced by APAP [3]; [13]): 3,686.67 ± 2,168.08 IU/L
ALT (average ± std. dev.) (toxicity induced by APAP [3]; [14]): 7,530.00 ± 2,339.06 IU/L
AST (average ± std. dev.) (toxicity induced by APAP [3]; [14]): 4,988.67 ± 878.44 IU/L
ALT (average ± std. dev.) (toxicity induced by APAP [3]; [15]): 5,739.25 ± 2,536.44 IU/L
AST (average ± std. dev.) (toxicity induced by APAP [3]; [15]): 4,374.00 ± 2,384.21 IU/L
ALT (average ± std. dev.) (toxicity induced by APAP [3]; [16]): 7,772.50 ± 1,771.00 IU/L
AST (average ± std. dev.) (toxicity induced by APAP [3]; [16]): 6,310.00 ± 2,127.07 IU/L
ALT (average ± std. dev.) (toxicity induced by APAP [3]; [17]): 9,040 ± 3,472.64 IU/L
AST (average ± std. dev.) (toxicity induced by APAP [3]; [17]): 6,560 ± 2,618.34 IU/L
ALT (average ± std. dev.) (toxicity induced by APAP [3]; [18]): 20,160.00 ± 9,678.28 IU/L
AST (average ± std. dev.) (toxicity induced by APAP [3]; [18]): 20,001.00 ± 11,998.16 IU/L
ALT (average ± std. dev.) (toxicity induced by APAP [3]; [19]): 8,918.00 ± 2,955.74 IU/L
AST (average ± std. dev.) (toxicity induced by APAP [3]; [19]): 6,586.67 ± 4,204.58 IU/L
AST (average ± std. dev.) (toxicity induced by APAP [3]; Table 25, 24 h, PO, per mouse APAP 4 mg, MSM 0.25 mg, IB 0.1 mg): 4,303.33 ± 2,163.30 IU/L
ALT (average ± std. dev.) (toxicity induced by APAP [3]; [20]): 10285.00 ± 4435.22 IU/L
AST (average ± std. dev.) (toxicity induced by APAP [3]; [20]): 7796.00 ± 5000.46 IU/L
ALT (average ± std. dev.) (toxicity induced by APAP [3]; [21]): 11210.83 ± 7589.19 IU/L
AST (average ± std. dev.) (toxicity induced by APAP [3]; [21]): 10577.33 ± 11375.63 IU/L
ALT (average ± std. dev.) (toxicity induced by APAP [3]; [22]): 9002.50 ± 4211.03 IU/L
AST (average ± std. dev.) (toxicity induced by APAP [3]; [22]): 5684.00 ± 2307.64 IU/L
histological liver sections (toxicity induced by APAP [4]; FIG. 1, groups of Table 5, 24 h after APAP 4 mg/mouse): diffuse damage to hepatocytes
histological liver sections (toxicity induced by APAP [4]; FIG. 2, groups of Table 7, 24 h after APAP 4 mg/mouse): diffuse damage to hepatocytes
histological liver sections (toxicity induced by APAP [4]; FIG. 3, groups of Table 10, 24 h after APAP 4 mg/mouse): diffuse damage to hepatocytes
histological liver sections (toxicity induced by APAP [4]; FIG. 4, groups of Table 16, 24 h after APAP 4 mg/mouse): diffuse damage to hepatocytes
histological liver sections (toxicity induced by APAP [4]; FIG. 6, groups of Table 26, 24 h after APAP 4.6 mg/mouse): diffuse damage to hepatocytes
histological liver sections (toxicity induced by APAP [4]; FIG. 7, groups of Table 29, 24 h after APAP 4.6 mg/mouse): diffuse damage to hepatocytes
histological liver sections (toxicity induced by APAP [4]; FIG. 8, groups of Table 32, 24 h after APAP 4.6 mg/mouse): diffuse damage to hepatocytes

COc1cc([C@H]2Oc3ccc([C@H]4Oc5cc(O)cc(O)c5C(=O)[C@@H]4O)cc3O[C@@H]2CO)ccc1O [IA, Isosilybin A]
effect on liver enzymes serum levels (toxicity induced by APAP [3]): ineffective in reducing liver enzymes serum levels
beneficial effect on acetaminophen-induced liver toxicity (toxicity induced by APAP [3]): did not show a beneficial effect

COc1cc([C@@H]2Oc3cc([C@H]4Oc5cc(O)cc(O)c5C(=O)[C@@H]4O)ccc3O[C@H]2CO)ccc1O [silybin B]
effect on liver enzymes serum levels (toxicity induced by APAP [3]): ineffective in reducing liver enzymes serum levels
beneficial effect on acetaminophen-induced liver toxicity (toxicity induced by APAP [3]): did not show a beneficial effect

Reference: patent US9474763B2, “Compositions and methods for amelioration and prevention of drug-induced toxicity” (priority 2012, dated 2016)
